The subject of data set [1] is annual broad-leaves (Lindernia procumbens Philcox, Rotala indica Koehne, Elatine triandra Schk, Ammannia multiflora Roxb., etc.). The data set can be described thus: Test Example 1: effect of the herbicide composition against paddy field weeds (pot test, green house). It counts as in vivo. To be noted: 3 weeks after treatment. An excerpt:
(§1) In a green house, seeds or tubers of Monochoria vaginalis Presl, annual broad-leaves (Lindernia procumbens Philcox, Rotala indica Koehne, Elatine triandra Schk, Ammannia multiflora Roxb., etc.), Cyperus serotinus Rottboel, and Sagittaria pygmaea Miq were inoculated to paddy field soil filled in a 500 cm^2 pot and brought to a submerged condition of about 2-3 cm. […] After the treatment, the submerged condition of 3 cm was maintained and the herbicidal effect was studied 3 weeks after the treatment. The herbicidal effect was evaluated as 100% in case of complete death and 0% in case of no effect.
(§2) In the tables, MOOVP represents Monochoria vaginalis Presl, BBBBB represents annual broad-leaves, CYPSE represents Cyperus serotinus Rottboel and SAGPY represents Sagittaria pygmaea Miq.

In data set [2] the test system is Cyperus serotinus Rottboel. Described as above. It counts as in vivo. To be noted: 3 weeks after treatment.
From the text: (§3) • Component (a) (a-1): compound No. 1 (ref: the aforementioned Table A) • (a-2): compound No. 3 (same as above) • (a-3): compound No. 11 (same as above) • Component (b) the aforementioned (b-1)-(b-15) • Component (c) the aforementioned (c-1)-(c-3) <Preparation of Test Agents> • Carrier: Acetone 5 parts by weight • Surfactant: Benzyloxy polyglycol ether 1 part by weight The above-mentioned carrier and surfactant and 1 part by weight of active compounds (component (a) and component (b) or component (c)) are mixed and the obtained formulations are diluted with water to prepare the test agents of the prescribed chemicals amount (preparations).
(§4) In a green house, seeds or tubers of Monochoria vaginalis Presl, annual broad-leaves (Lindernia procumbens Philcox, Rotala indica Koehne, Elatine triandra Schk, Ammannia multiflora Roxb., etc.), Cyperus serotinus Rottboel, and Sagittaria pygmaea Miq were inoculated to paddy field soil filled in a 500 cm^2 pot and brought to a submerged condition of about 2-3 cm. At 1.5-2 leafstage of each weed prescribed diluted solution of preparation of each active compound and each herbicide in the following table was applied on water surface each singly or simultaneously. After the treatment, the submerged condition of 3 cm was maintained and the herbicidal effect was studied 3 weeks after the treatment. The herbicidal effect was evaluated as 100% in case of complete death and 0% in case of no effect.
as §2

For data set [3], the system named is Monochoria vaginalis Presl. The description is as above. The class given is in vivo. To be noted: 3 weeks after treatment.
From the text: as §3, §4, §2

For another data set, the system named is Sagittaria pygmaea Miq. The description is as above. To be noted: 3 weeks after treatment. It counts as in vivo.
From the text: as §3, §4, §2

Assay in data set [4]: as above
It counts as in vivo, annual broad-leaves. Conditions: 504 h, read-out: Herbicidal effect (%) BBBBB.
From the text: as §1, §2

The subject of another data set is paddy rice. As to the kind of experiment: Test Example 2: test of effect of phytotoxicity reduction. The class given is in vivo. To be noted: 2 weeks after treatment.
From the text: as §3
In a green house, paddy rice of 2-2.5 leafstage was transplanted to paddy field soil filled in a 1000 cm^2 pot to 2 cm depth and brought to a submerged condition of about 2-3 cm. Five days after the transplantation, prescribed diluted solution of preparation of each active compound and each herbicide in the following table was applied on water surface each singly or simultaneously. After the treatment, the submerged condition of 3 cm was maintained and the grade of phytotoxicity to paddy rice was studied 2 weeks after the treatment. The phytotoxicity was evaluated as 100% in case of complete death and 0% in case of no phytotoxicity.

As for `C#CCN(C)c1c(C#N)cnn1-c1nn2c(c1Cl)CCCC2` [(b-6), pyraclonil], the “Herbicidal effect (%) BBBBB” value in data set [1] (50 g/ha single) and in data set [1] (100 g/ha single) was 90% each time. Besides, the figures for the “Herbicidal effect (%) CYPSE” value in data set [2] (50 g/ha single) and in data set [2] (100 g/ha single) were 20% and 30%, respectively. In addition, the “Herbicidal effect (%) MOOVP” value in data set [3] (50 g/ha single) stood at 80%; in data set [3] (100 g/ha single) it was 90%. In addition, the “Herbicidal effect (%) SAGPY” value in the data set with Sagittaria pygmaea Miq (50 g/ha single) is recorded as 50%; with Sagittaria pygmaea Miq (100 g/ha single), 85%.
On to `COC(=O)c1ccccc1CS(=O)(=O)NC(=O)Nc1nc(OC)cc(OC)n1` [(b-12), bensulfuron-methyl], for which the pest or weed control at 2.5 g/ha is 50% in data set [4] (2.5 g/ha single, 3 weeks after treatment); 40% in data set [2] (Cyperus serotinus, 504 h, 2.5 g/ha single, read-out: Herbicidal effect (%) CYPSE); 30% in data set [3] (Pontederia vaginalis, 504 h, 2.5 g/ha single, read-out: Herbicidal effect (%) MOOVP); 50% with Sagittaria pygmaea Miq (Sagittaria pygmaea, 504 h, 2.5 g/ha single, read-out: Herbicidal effect (%) SAGPY). The pest or weed control at 5 g/ha in data set [4] (5 g/ha single, 3 weeks after treatment) is 60%; in data set [2] (Cyperus serotinus, 504 h, 5 g/ha single, read-out: Herbicidal effect (%) CYPSE), 40%; in data set [3] (Pontederia vaginalis, 504 h, 5 g/ha single, read-out: Herbicidal effect (%) MOOVP), 60%; in the data set on Sagittaria pygmaea Miq (Sagittaria pygmaea, 504 h, 5 g/ha single, read-out: Herbicidal effect (%) SAGPY) it was 50%.
With `CCOc1ccccc1OS(=O)(=O)NC(=O)Nc1nc(OC)cc(OC)n1` [(b-13), ethoxysulfuron], the pest or weed control at 1.5 g/ha amounted to 40% in data set [4] (1.5 g/ha single, 3 weeks after treatment); 0% in data set [2] (Cyperus serotinus, 504 h, 1.5 g/ha single, read-out: Herbicidal effect (%) CYPSE); 65% in data set [3] (Pontederia vaginalis, 504 h, 1.5 g/ha single, read-out: Herbicidal effect (%) MOOVP); 65% with Sagittaria pygmaea Miq (Sagittaria pygmaea, 504 h, 1.5 g/ha single, read-out: Herbicidal effect (%) SAGPY). The pest or weed control at 3 g/ha turned out to be 70% in data set [4] (3 g/ha single, 3 weeks after treatment); 0% in data set [2] (Cyperus serotinus, 504 h, 3 g/ha single, read-out: Herbicidal effect (%) CYPSE); 70% in data set [3] (Pontederia vaginalis, 504 h, 3 g/ha single, read-out: Herbicidal effect (%) MOOVP); 65% with Sagittaria pygmaea Miq (Sagittaria pygmaea, 504 h, 3 g/ha single, read-out: Herbicidal effect (%) SAGPY).
For the compound `CC(C)(NC(=O)C(Br)C(C)(C)C)c1ccccc1` (stereo not shown) [(b-14), bromobutide], the pest or weed control at 200 g/ha was 20% in data set [4]; 40% in data set [2] (Cyperus serotinus, 504 h, 200 g/ha single, read-out: Herbicidal effect (%) CYPSE); 30% in data set [3] (Pontederia vaginalis, 504 h, 200 g/ha single, read-out: Herbicidal effect (%) MOOVP); 10% with Sagittaria pygmaea Miq (Sagittaria pygmaea, 504 h, 200 g/ha single, read-out: Herbicidal effect (%) SAGPY). Moreover, the pest or weed control at 400 g/ha in data set [4] came out at 30%; in data set [2] (Cyperus serotinus, 504 h, 400 g/ha single, read-out: Herbicidal effect (%) CYPSE), 60%; in data set [3] (Pontederia vaginalis, 504 h, 400 g/ha single, read-out: Herbicidal effect (%) MOOVP), 95%; with Sagittaria pygmaea Miq (Sagittaria pygmaea, 504 h, 400 g/ha single, read-out: Herbicidal effect (%) SAGPY) it was 10%.
As to `CS(=O)(=O)c1ccc(C(=O)C2C(=O)CCCC2=O)c(Cl)c1COCC1CCCO1` (stereo not shown) [(b-15), 2-{2-chloro-4-mesyl-3-[(tetrahydrofuran-2-ylmethoxy)-methyl]-benzoyl}-cyclohexan-1,3-dione], the pest or weed control at 75 g/ha was 50% in data set [4] (75 g/ha single, 3 weeks after treatment); 80% in data set [2] (Cyperus serotinus, 504 h, 75 g/ha single, read-out: Herbicidal effect (%) CYPSE); 85% in data set [3] (Pontederia vaginalis, 504 h, 75 g/ha single, read-out: Herbicidal effect (%) MOOVP); 80% in the data set with Sagittaria pygmaea Miq (Sagittaria pygmaea, 504 h, 75 g/ha single, read-out: Herbicidal effect (%) SAGPY). The pest or weed control at 150 g/ha came out at 65% in data set [4] (150 g/ha single, 3 weeks after treatment); 85% in data set [2] (Cyperus serotinus, 504 h, 150 g/ha single, read-out: Herbicidal effect (%) CYPSE); 95% in data set [3] (Pontederia vaginalis, 504 h, 150 g/ha single, read-out: Herbicidal effect (%) MOOVP); 80% with Sagittaria pygmaea Miq (Sagittaria pygmaea, 504 h, 150 g/ha single, read-out: Herbicidal effect (%) SAGPY).
The compound `Cc1ccc(NC(=O)NC(C)(C)c2ccccc2)cc1` [(c-1), dymron] returned a Phytotoxicity % in the data set with paddy rice (450 g/ha single) of 0%.
With `CCOC(=O)C1=NN(c2ccc(Cl)cc2Cl)C(C)(C(=O)OCC)C1` (stereo not shown) [(c-2), mefenpyr-diethyl], the Phytotoxicity % in the data set with paddy rice (500 g/ha single) is on record as 0%.
The compound `O=C(O)C1=NOC(c2ccccc2)(c2ccccc2)C1` [(c-3), isoxadifen] yielded a Phytotoxicity % in the data set with paddy rice (500 g/ha single) of 0%.

(Values after patent publication US7855165B2, “Herbicide composition for paddy field” (Bayer Cropscience AG, priority 2007, dated 2010).)
